# Results taken from US9303045B2, “5-HT3 receptor antagonists” (Takeda Pharmaceutical Company Limited, priority 2013, dated 2016).
# Where a name gives a salt, the structure may show the parent alone.
# Molecular target: 5HT3a receptor expressed in HEK-293T cells (Homo sapiens (Human), UniProt P46098)
# Assay: Inhibition of Ca flux activity of 5HT3 in vitro assay
# Type: cell-based
# Settings: calcium flux, 5HT 216 nM, approximate values
# Procedure, shortened: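 HEK-293T cells transiently transfected with human 5HT3a, loaded 1 hour at 37° C with calcium dye in HBSS/20 mM HEPES, preincubated with compound (10^−7 to 10^−10, half-log) 10 minutes at room temperature.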
# 5HT3a receptor expressed in HEK-293T cells, sequence (P46098 24-478): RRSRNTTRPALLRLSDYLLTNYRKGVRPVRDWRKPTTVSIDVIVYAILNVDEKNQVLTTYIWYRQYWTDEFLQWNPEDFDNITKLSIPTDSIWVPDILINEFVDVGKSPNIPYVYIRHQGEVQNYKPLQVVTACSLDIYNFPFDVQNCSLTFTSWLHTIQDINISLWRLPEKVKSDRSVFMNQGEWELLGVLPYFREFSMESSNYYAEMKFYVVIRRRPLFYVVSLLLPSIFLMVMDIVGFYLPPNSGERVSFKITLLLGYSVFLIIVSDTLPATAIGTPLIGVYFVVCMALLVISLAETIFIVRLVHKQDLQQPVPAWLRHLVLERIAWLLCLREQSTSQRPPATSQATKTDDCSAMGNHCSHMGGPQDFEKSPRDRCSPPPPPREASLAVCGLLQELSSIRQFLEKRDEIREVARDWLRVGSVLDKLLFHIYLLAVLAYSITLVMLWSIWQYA
row,Compound,IC50 [nM]
1,"CN1C2COCC1CC(OC(=O)c1cn(-c3ccc(O)nn3)c3ccccc13)C2 [Example 169, (1R,5S,7s)-9-methyl-3-oxa-9-azabicyclo[3.3.1]nonan-7-yl 1-(6-hydroxypyridazin-3-yl)-1H-indole-3-carboxylate, 2,2,2-trifluoroacetic acid salt]",0.598
2,"O=C(NC1C[C@H]2COC[C@@H](C1)N2)c1nn(CC(F)F)c2ccccc12 (stereo partly drawn) [Example 65, N-((1R,5S,7S)-3-oxa-9-azabicyclo[3.3.1]nonan-7-yl)-1-(2,2-difluoroethyl)-1H-indazole-3-carboxamide, 2,2,2-trifluoroacetate]",4.09
3,"CN1C2COCC1CC(NC(=O)c1cn(CC(F)F)c3ncccc13)C2 [Example 64, 1-(2,2-difluoroethyl)-N-((1R,5S,7S)-9-methyl-3-oxa-9-azabicyclo[3.3.1]nonan-7-yl)-1H-pyrrolo[2,3-b]pyridine-3-carboxamide, 2,2,2-trifluoroacetate]",1.43
4,CC(C)S(=O)(=O)n1cc(C(=O)O[C@H]2C[C@H]3COC[C@@H](C2)N3)c2ccccc21,1.8
5,"CN1[C@@H]2COC[C@H]1C[C@@H](OC(=O)c1cn(CC(F)F)c3ncccc13)C2 [Example 48, (1R,5S,7S)-9-methyl-3-oxa-9-azabicyclo[3.3.1]nonan-7-yl 1-(2,2-difluoroethyl)-1H-pyrrolo[2,3-b]pyridine-3-carboxylate]",0.84
6,"O=C(OC1CC2COCC(C1)N2)c1cn(-c2cnccn2)c2ccccc12 [Example 141, (1R,5S,7s)-3-oxa-9-azabicyclo[3.3.1]nonan-7-yl 1-(pyrazin-2-yl)-1H-indole-3-carboxylate, 2,2,2-trifluoroacetic acid salt]",1.12
7,"CN1[C@@H]2COC[C@H]1CC(NC(=O)c1cn(S(C)(=O)=O)c3ccc(F)cc13)C2 (stereo partly drawn) [Example 36, 5-fluoro-N-((1R,5S,7S)-9-methyl-3-oxa-9-azabicyclo[3.3.1]nonan-7-yl)-1-(methylsulfonyl)-1H-indole-3-carboxylate, 2,2,2-trifluoroacetate]",0.5
8,"O=C(OC1C[C@H]2COC[C@@H](C1)N2CCF)c1cn(CC(F)(F)F)c2ccc(F)cc12 (stereo partly drawn) [Example 50, (1R,5S,7S)-9-(2-fluoroethyl)-3-oxa-9-azabicyclo[3.3.1]nonan-7-yl 5-fluoro-1-(2,2,2-trifluoroethyl)-1H-indole-3-carboxylate, 2,2,2-trifluoroacetate]",13
9,"CN1C2COCC1CC(NC(=O)c1cn(-c3cscn3)c3ncc(F)cc13)C2 [Example 163, 5-fluoro-N-((1R,5S,7s)-9-methyl-3-oxa-9-azabicyclo[3.3.1]nonan-7-yl)-1-(thiazol-4-yl)-1H-pyrrolo[2,3-b]pyridine-3-carboxamide, 2,2,2-trifluoroacetic acid salt]",1.81
10,"CC(C)S(=O)(=O)n1cc(C(=O)O[C@H]2C[C@H]3COC[C@@H](C2)N3)c2ccccc21 [Example 131, (1R,5S,7S)-3-oxa-9-azabicyclo[3.3.1]nonan-7-yl 1-(isopropylsulfonyl)-1H-indole-3-carboxylate, 2,2,2-trifluoroacetate]",1.93
11,"CN1[C@@H]2CC[C@H]1C[C@@H](NC(=O)c1nn(CC(F)F)c3ccccc13)C2 [Example 90, 1-(2,2-difluoroethyl)-N-((1R,3R,5S)-8-methyl-8-azabicyclo-[3.2.1]octan-3-yl)-1H-indazole-3-carboxamide, 2,2,2-trifluoroacetate]",0.75
12,"O=C(OC1CC2COCC(C1)N2)c1cn(CC(F)F)c2ncccc12 [Example 101, (1R,5S,7S)-3-oxa-9-azabicyclo[3.3.1]nonan-7-yl 1-(2,2-difluoroethyl)-1H-pyrrolo[2,3-b]pyridine-3-carboxylate, 2,2,2-trifluoroacetate]",> 1000
13,"CC(C)S(=O)(=O)n1cc(C(=O)NC2C[C@H]3COC[C@@H](C2)N3C)c2ccccc21 (stereo partly drawn) [Example 111, N-((1R,5S,7S)-9-methyl-d3-3-oxa-9-azabicyclo[3.3.1]nonan-7-yl)-1-(isopropylsulfonyl)-1H-indole-3-carboxamide, 2,2,2-trifluoroacetate]",0.77
14,"CN1[C@@H]2CC[C@H]1CC(OC(=O)c1cn(C3CCOC3)c3ccccc13)C2 (stereo partly drawn) [Example 42, (1R,3R,5S)-8-methyl-8-azabicyclo[3.2.1]octan-3-yl 1-(tetrahydrofuran-3-yl)-1H-indole-3-carboxylate, 2,2,2-trifluoroacetate]",0.94
15,"O=C(NC1C[C@H]2COC[C@@H](C1)N2)c1cn(CC(F)F)c2ncccc12 (stereo partly drawn) [Example 82, N-((1R,5S,7S)-3-oxa-9-azabicyclo[3.3.1]nonan-7-yl)-1-(2,2-difluoroethyl)-1H-pyrrolo[2,3-b]pyridine-3-carboxamide, 2,2,2-trifluoroacetate]",> 1000
16,"O=C(NC1C[C@H]2COC[C@@H](C1)N2)c1cn(CC(F)(F)F)c2ncc(F)cc12 (stereo partly drawn) [Example 105, N-((1R,5S,7S)-3-oxa-9-azabicyclo[3.3.1]nonan-7-yl)-5-fluoro-1-(2,2,2-trifluoroethyl)-1H-pyrrolo[2,3-b]pyridine-3-carboxamide, 2,2,2-trifluoroacetate]",34.1

row,Compound,IC50 [nM]
1,"CN1[C@@H]2CC[C@H]1CC(NC(=O)c1cn(S(C)(=O)=O)c3ccccc13)C2 (stereo partly drawn) [Example 74, N-((1R,3R,5S)-8-methyl-8-azabicyclo[3.2.1]octan-3-yl)-1-(methylsulfonyl)-1H-indole-3-carboxamide, 2,2,2-trifluoroacetate]",0.42
2,"CN1[C@@H]2COC[C@H]1C[C@@H](NC(=O)c1cn(-c3cscn3)c3ncccc13)C2 [Example 147, N-((1R,5S,7s)-9-methyl-3-oxa-9-azabicyclo[3.3.1]nonan-7-yl)-1-(thiazol-4-yl)-1H-pyrrolo[2,3-b]pyridine-3-carboxamide, 2,2,2-trifluoroacetic acid salt]",0.4
3,"N-((1R,5S,7s)-9-methyl-3-oxa-9-azabicyclo[3.3.1]nonan-7-yl)-1-phenyl-1H-indole-3-carboxamide, 2,2,2-trifluoroacetic acid salt [Example 26]",0.54
4,"CN1[C@@H]2COC[C@H]1CC(NC(=O)c1cn(CC(C)(F)F)c3ncccc13)C2 (stereo partly drawn) [Example 108, 1-(2,2-difluoropropyl)-N-((1R,5S,7S)-9-methyl-3-oxa-9-azabicyclo[3.3.1]nonan-7-yl)-1H-pyrrolo[2,3-b]pyridine-3-carboxamide, 2,2,2-trifluoroacetate]",1.05
5,"O=C(OC1C[C@H]2COC[C@@H](C1)N2)c1cn(CC(F)F)c2ccc(F)cc12 (stereo partly drawn) [Example 31, (1R,5S,7S)-3-oxa-9-azabicyclo[3.3.1]nonan-7-yl 1-(2,2-difluoroethyl)-5-fluoro-1H-indole-3-carboxylate, 2,2,2-trifluoroacetate]",1.29
6,"CN1[C@@H]2COC[C@H]1CC(NC(=O)c1cn(-c3cccnn3)c3ccccc13)C2 (stereo partly drawn) [Example 123, N-((1R,5S,7S)-9-methyl-d3-3-oxa-9-azabicyclo[3.3.1]nonan-7-yl)-1-(pyridazin-3-yl)-1H-indole-3-carboxamide, 2,2,2-trifluoroacetate]",0.28
7,"CN1C2CCC1CC(OC(=O)c1cn(CC(F)F)c3ccccc13)C2 [Example 40, (1R,3R,5S)-8-methyl-8-azabicyclo[3.2.1]octan-3-yl 1-(2,2-difluoroethyl)-1H-indole-3-carboxylate, 2,2,2-trifluoroacetate]",0.78
8,"(1R,5S,7S)-9-methyl-3-oxa-9-azabicyclo[3.3.1]nonan-7-yl 1-(2,2-difluoroethyl)-1H-pyrrolo[2,3-b]pyridine-3-carboxylate 2,2,2-trifluoroacetate [Example 14]",3.71
9,"O=C(NC1C[C@H]2COC[C@@H](C1)N2)c1cn(CC(F)F)c2ncc(F)cc12 (stereo partly drawn) [Example 39, N-((1R,5S,7S)-3-oxa-9-azabicyclo[3.3.1]nonan-7-yl)-1-(2,2-difluoroethyl)-5-fluoro-1H-pyrrolo[2,3-b]pyridine-3-carboxamide, 2,2,2-trifluoroacetate]",24.1
10,"O=C(OC1C[C@H]2COC[C@@H](C1)N2)c1cn(S(=O)(=O)C2CC2)c2ccccc12 (stereo partly drawn) [Example 134, (1R,5S,7S)-3-oxa-9-azabicyclo[3.3.1]nonan-7-yl 1-(cyclopropylsulfonyl)-1H-indole-3-carboxylate, 2,2,2-trifluoroacetate]",1.99
11,"O=C(O[C@H]1CC[N@@]2CCO[C@@H]1C2)c1cn(CC(F)F)c2ccc(F)cc12 [Example 91, (1S,5R,6S)-4-oxa-1-azabicyclo[3.3.1]nonan-6-yl 1-(2,2-difluoroethyl)-5-fluoro-1H-indole-3-carboxylate, 2,2,2-trifluoroacetate]",> 1000
12,"CN1C2COCC1CC(NC(=O)c1nn(-c3cncs3)c3ccccc13)C2 [Example 165, N-((1R,5S,7s)-9-methyl-3-oxa-9-azabicyclo[3.3.1]nonan-7-yl)-1-(thiazol-5-yl)-1H-indazole-3-carboxamide, 2,2,2-trifluoroacetic acid salt]",1.53
13,"O=C(OC1CC2COCC(C1)N2)c1cn(-c2cnsc2)c2ccccc12 [Example 143, (1R,5S,7s)-3-oxa-9-azabicyclo[3.3.1]nonan-7-yl 1-(isothiazol-4-yl)-1H-indole-3-carboxylate, 2,2,2-trifluoroacetic acid salt]",0.415
14,"CN1[C@@H]2COC[C@H]1C[C@@H](OC(=O)c1cn(-c3ccc(F)nn3)c3ccc(C#N)cc13)C2 [Example 161, 1R,5S,7s)-9-methyl-3-oxa-9-azabicyclo[3.3.1]nonan-7-yl 5-cyano-1-(6-fluoropyridazin-3-yl)-1H-indole-3-carboxylate]",> 1000
15,"CN1[C@@H]2CCC[C@H]1CC(NC(=O)c1cn(S(C)(=O)=O)c3ccc(F)cc13)C2 (stereo partly drawn) [Example 100, 5-fluoro-N-((1R,3R,5S)-9-methyl-9-azabicyclo[3.3.1]nonan-3-yl)-1-(methylsulfonyl)-1H-indole-3-carboxamide, 2,2,2-trifluoroacetate]",12.8
16,"O=C(N[C@H]1CN2CCC1CC2)c1cn(CC(F)F)c2ncccc12 [Example 67, (R)-1-(2,2-difluoroethyl)-N-(quinuclidin-3-yl)-1H-pyrrolo[2,3-b]pyridine-3-carboxamide, 2,2,2-trifluoroacetate]",> 1000
